Results taken from patent US20240383870A1, “HETEROCYCLIC ALDEHYDE TRAPPING COMPOUNDS AND USES THEREOF” (Aldeyra Therapeutics, Inc., priority 2021, published 2024).

What was measured:
[1] = 4-HNE trapping experiment (aldehyde adduct formation, Example 6); details: 4-HNE 1.5 eq; 20% Captisol in phosphate buffer pH 7.2; 24-h time period; LCMS
Experimental: Each of compounds ADX-102, I-32, I-8, I-29, and I-31 ([…]) was tested for reactivity using 4-hydroxynonenal (4-HNE) (1.5 eq) as a model aldehyde. ADX-102 is also known as Reproxalap. Each compound was dissolved in a 20% solution of Captisol in phosphate buffer (1 mL, pH=7.2). Then, 4-HNE in ethanol (10 mg/mL solution) was added to the solution. The ensuing reaction was monitored by LCMS analysis. The relative ratio of experimental compound/4-HNE adduct to final composition was plotted against time to provide an indication of reaction rate and level of reaction completeness.

IL-2 = test: Acute LPS-induced sepsis in C57BL/6 mice: IL-2 cytokine detection assay; assay type: in vivo; details: 200 mpk PO; LPS-challenged mice, plasma at 6.5 h; unpaired t-test vs vehicle
From the text: FIG. 7 is a graph showing the results of an IL-2 cytokine detection assay in samples collected from mouse subjects after administration of compounds of the present disclosure.
The primary objective of this study was to collect plasma samples of lipopolysaccharide (LPS) challenged C57BL/6 mice after dose of test compounds to provide a cytokine profile as impacted by prophylactic treatments. This study models acute sepsis, which is a systemic inflammatory syndrome initiated by Gram-negative and Gram-positive bacteria and fungi which infect the lungs, abdomen, bloodstream, and renal or genitourinary tracts. Sepsis patients ultimately die of multiorgan failure which is caused by extensive tissue hypo-oxygenation due to ongoing microvascular leakage, disseminated intravascular coagulation, compromised energy production, and metabolic alterations. Sepsis is characterized by an early systemic inflammatory response phase featuring symptoms, such as tachycardia, fever, hyperventilation, and activation of the complement and coagulation cascades. However, it is now appreciated that a compensatory anti-inflammatory response phase follows, characterized by neuroendocrine-mediated immunosuppression. […]
(§1) A 32-plex cytokine panel was obtained from Eve Technologies. Each cytokine was assessed based against a 7 point curve range in duplicate. […]

IL-6 = test: Acute LPS-induced sepsis in C57BL/6 mice: IL-6 cytokine detection assay; assay type: in vivo; details: 200 mpk PO; LPS-challenged mice, plasma at 6.5 h; unpaired t-test vs vehicle
From the text: FIG. 11 is a graph showing the results of an IL-6 cytokine detection assay in samples collected from mouse subjects after administration of compounds of the present disclosure.
(§2) The primary objective of this study was to collect plasma samples of lipopolysaccharide (LPS) challenged C57BL/6 mice after dose of test compounds to provide a cytokine profile as impacted by prophylactic treatments. This study models acute sepsis, which is a systemic inflammatory syndrome initiated by Gram-negative and Gram-positive bacteria and fungi which infect the lungs, abdomen, bloodstream, and renal or genitourinary tracts. Sepsis patients ultimately die of multiorgan failure which is caused by extensive tissue hypo-oxygenation due to ongoing microvascular leakage, disseminated intravascular coagulation, compromised energy production, and metabolic alterations. Sepsis is characterized by an early systemic inflammatory response phase featuring symptoms, such as tachycardia, fever, hyperventilation, and activation of the complement and coagulation cascades. However, it is now appreciated that a compensatory anti-inflammatory response phase follows, characterized by neuroendocrine-mediated immunosuppression. Since these processes are the result of interaction between cells of inflammation and organs, investigation of the treatment of this syndrome requires the use of intact animal models. The use of ten mice per group allows useful statistical modelling of the results.
(§3) For the data shown in Table 2A, 103 mice (female, 18-22 gram, C57BL/6) were purchased from ENVIGO. The mice were housed in 20 cages of 5 mice per cage with 1 cage of 3 mice as extra. The cages had filter tops and autoclaved bedding, and the animals were placed in quarantine with daily inspection. The treatment groups are detailed in Table 2A below. 10 mice were included in each group. The mice were dosed by oral gavage (PO) at 10 ml/kg as per the table below. MC=methyl cellulose.
as §3, with “2B, 185” for “2A, 103”, “37” for “20”, “cage.” for “cage with 1 cage of 3 mice as extra.”, “2B” for “2A”, “(P0)” for “(PO)”
(§4) At T=0 h, the mice were dosed with one of the test compounds as described in the above table.
(§5) At T=0.5 h, the mice were injected IP with 1.5 mg/kg […] (Sigma).
(§6) At T=6.5 h, all mice were anesthetized and exsanguinated into pre-chilled EDTA-treated tubes. […]
as §1

IL-9 = test: Acute LPS-induced sepsis in C57BL/6 mice: IL-9 cytokine detection assay; assay type: in vivo; details: 200 mpk PO; LPS-challenged mice, plasma at 6.5 h; unpaired t-test vs vehicle
From the text: FIG. 13 is a graph showing the results of an IL-9 cytokine detection assay in samples collected from mouse subjects after administration of compounds of the present disclosure.
as §2
as §3, with “cellulose. […]” for “cellulose.”
as §1

IL-12(p70) = test: Acute LPS-induced sepsis in C57BL/6 mice: IL-12(p70) cytokine detection assay; assay type: in vivo; details: LPS-challenged mice, plasma at 6.5 h, unpaired t-test vs vehicle
From the text: FIG. 16 is a graph showing the results of an IL-12(p70) cytokine detection assay in samples collected from mouse subjects after administration of compounds of the present disclosure.
as §2
as §3, with “The mice were dosed by oral gavage (PO) at 10 ml/kg as per the table below.” left out
as §3, with “2B, 185” for “2A, 103”, “37” for “20”, “cage.” for “cage with 1 cage of 3 mice as extra.”, “2B” for “2A”, “(P0)” for “(PO)”
as §4, §5
(§7) At T=6.5 h, all mice were anesthetized and exsanguinated into pre-chilled EDTA-treated tubes. The blood was processed to plasma which was stored in labeled 0.5 polypropylene snap-cap tubes (0.5 mL Eppendorf Safe-Lock Tubes (Fisher Scientific) at −80° C.
(§8) Preparation of vehicle: 1.0 gram of methyl cellulose (Sigma) was dissolved in 200 mL of water (USP purified) to make a solution of 0.5% methyl cellulose in water. Preparation of LPS solution: 6 mg of LPS (from Escherichia Coli 055:B5, Cat #L2880, Sigma Lot #057m4013) was dissolved in 20 ml of saline to give a LPS solution of 0.3 mg/ml. All mice were injected with 5 ml/kg (1.5 mg/kg) at the scheduled time by intraperitoneal injection.
A 32-plex cytokine panel was obtained from Eve Technologies. Each cytokine was assessed based against a 7 point curve range in duplicate. The average of the two replicate analyses was used for statistics. Unpaired t-tests were performed using Excel™ contrasting vehicle against each treatment group. One star indicates P<0.05. […]

KC = test: Acute LPS-induced sepsis in C57BL/6 mice: KC cytokine detection assay; assay type: in vivo; details: 200 mpk PO; LPS-challenged mice, plasma at 6.5 h; unpaired t-test vs vehicle
From the text: FIG. 20 is a graph showing the results of a KC cytokine detection assay in samples collected from mouse subjects after administration of compounds of the present disclosure.
as §2, §3
as §3, with “2B, 185” for “2A, 103”, “37” for “20”, “cage.” for “cage with 1 cage of 3 mice as extra.”, “2B” for “2A”, “(P0)” for “(PO)”
as §4, §5, §7, §8
A 32-plex cytokine panel was obtained from Eve Technologies. Each cytokine was assessed based against a 7 point curve range in duplicate. The average of the two replicate analyses was used for statistics. Unpaired t-tests were performed using Excel™ contrasting vehicle against each treatment group. One star indicates P<0.05. Two stars indicates P<0.01. Three stars indicates P<0.001. Four stars indicates P<0.0001. Most, but not all, statistically significant results are indicated with star(s).

[2] = tested on: leukemia inhibitory factor (LIF); test: Acute LPS-induced sepsis in C57BL/6 mice: leukemia inhibitory factor (LIF) cytokine detection assay; assay type: in vivo; details: 200 mpk PO; LPS-challenged mice, plasma at 6.5 h; unpaired t-test vs vehicle
From the text: FIG. 21 is a graph showing the results of a leukemia inhibitory factor (LIF) cytokine detection assay in samples collected from mouse subjects after administration of compounds of the present disclosure. LIF is an interleukin 6 class cytokine that affects cell growth by inhibiting differentiation.
as §2, §3
as §3, with “2B, 185” for “2A, 103”, “37” for “20”, “cage.” for “cage with 1 cage of 3 mice as extra.”, “2B” for “2A”, “(P0)” for “(PO)”
as §4, §5, §7, §8, §1

MIP2(CXCL2) = test: Acute LPS-induced sepsis in C57BL/6 mice: MIP2(CXCL2) cytokine detection assay; assay type: in vivo; details: 200 mpk PO; LPS-challenged mice, plasma at 6.5 h; unpaired t-test vs vehicle
From the text: FIG. 27 is a graph showing the results of a MIP2(CXCL2) cytokine detection assay in samples collected from mouse subjects after administration of compounds of the present disclosure.
as §2
as §3, with “The mice were dosed by oral gavage (PO) at 10 ml/kg as per the table below.” left out
as §3, with “2B, 185” for “2A, 103”, “37” for “20”, “cage.” for “cage with 1 cage of 3 mice as extra.”, “2B” for “2A”, “(P0)” for “(PO)”
as §4, §5, §6, §1

eotaxin = test: Acute LPS-induced sepsis in C57BL/6 mice: eotaxin cytokine detection assay; assay type: in vivo; details: 100 mpk IP; LPS-challenged mice, plasma at 6.5 h; unpaired t-test vs vehicle
G-CSF = test: Acute LPS-induced sepsis in C57BL/6 mice: G-CSF cytokine detection assay; assay type: in vivo; details: 100 mpk IP; LPS-challenged mice, plasma at 6.5 h; unpaired t-test vs vehicle
IFNγ = test: Acute LPS-induced sepsis in C57BL/6 mice: IFNγ cytokine detection assay; assay type: in vivo; details: 100 mpk IP; LPS-challenged mice, plasma at 6.5 h; unpaired t-test vs vehicle
IL-3 = test: Acute LPS-induced sepsis in C57BL/6 mice: IL-3 cytokine detection assay; assay type: in vivo; details: 100 mpk IP; LPS-challenged mice, plasma at 6.5 h; unpaired t-test vs vehicle
IL-7 = test: Acute LPS-induced sepsis in C57BL/6 mice: IL-7 cytokine detection assay; assay type: in vivo; details: 100 mpk IP; LPS-challenged mice, plasma at 6.5 h; unpaired t-test vs vehicle
IL-10 = test: Acute LPS-induced sepsis in C57BL/6 mice: IL-10 cytokine detection assay; assay type: in vivo; details: 100 mpk IP; LPS-challenged mice, plasma at 6.5 h; unpaired t-test vs vehicle
IL-15 = test: Acute LPS-induced sepsis in C57BL/6 mice: IL-15 cytokine detection assay; assay type: in vivo; details: 100 mpk IP; LPS-challenged mice, plasma at 6.5 h; unpaired t-test vs vehicle
IL-17 = test: Acute LPS-induced sepsis in C57BL/6 mice: IL-17 cytokine detection assay; assay type: in vivo; details: 100 mpk IP; LPS-challenged mice, plasma at 6.5 h; unpaired t-test vs vehicle
From the text: FIG. 19 is a graph showing the results of an IL-17 cytokine detection assay in samples collected from mouse subjects after administration of compounds of the present disclosure.
as §2
as §3, with “The mice were dosed by oral gavage (PO) at 10 ml/kg as per the table below.” left out
as §3, with “2B, 185” for “2A, 103”, “37” for “20”, “cage.” for “cage with 1 cage of 3 mice as extra.”, “2B” for “2A”, “(P0)” for “(PO)”
as §4, §5, §6, §1

MIP-1a(CCL3) = test: Acute LPS-induced sepsis in C57BL/6 mice: MIP-1a(CCL3) cytokine detection assay; assay type: in vivo; details: 100 mpk IP; LPS-challenged mice, plasma at 6.5 h; unpaired t-test vs vehicle

Row | SMILES | 4-HNE binding (rate of formation of aldehyde adduct) [1] | IL-2: significant cytokine change vs. vehicle (IL-2) | IL-6: significant cytokine change vs. vehicle (IL-6) | IL-9: significant cytokine change vs. vehicle (IL-9) | IL-12 (p70): significant cytokine change vs. vehicle (IL-12(p70); 200 mpk PO) | KC: significant cytokine change vs. vehicle (KC) | LIF: significant cytokine change vs. vehicle [2] | MIP-2: significant cytokine change vs. vehicle (MIP2(CXCL2)) | Eotaxin: significant cytokine change vs. vehicle (eotaxin) | G-CSF: significant cytokine change vs. vehicle (G-CSF) | IFNy: significant cytokine change vs. vehicle (IFNγ) | IL-3: significant cytokine change vs. vehicle (IL-3) | IL-7: significant cytokine change vs. vehicle (IL-7) | IL-10: significant cytokine change vs. vehicle (IL-10) | IL-12 (p70): significant cytokine change vs. vehicle (IL-12(p70); 100 mpk IP) | IL-15: significant cytokine change vs. vehicle (IL-15) | IL-17: significant cytokine change vs. vehicle (IL-17) | MIP-1a: significant cytokine change vs. vehicle (MIP-1a(CCL3))
1 | CC(C)(O)c1cc2c(cc1N)OCO2 [Compound I-29] | the best binding | ** (Two stars indicates P<0.01) | ** (Two stars indicates P<0.01) | *** (Three stars indicates P<0.001) | **** (Four stars indicates P<0.0001) | * (One star indicates P<0.05) | **** (Four stars indicates P<0.0001) | * (One star indicates P<0.05) | – | – | – | – | – | – | – | – | – | –
2 | CC(O)(c1sc2ccccc2c1N)C(F)(F)F (stereo not drawn) [Compound I-1, 2-(3-aminobenzo[b]thiophen-2-yl)-1,1,1-trifluoropropan-2-ol] | – | – | – | – | – | – | – | – | * (One star indicates P<0.05) | * (One star indicates P<0.05) | **** (Four stars indicates P<0.0001) | **** (Four stars indicates P<0.0001) | * (One star indicates P<0.05) | **** (Four stars indicates P<0.0001) | * (One star indicates P<0.05) | ** (Two stars indicates P<0.01) | *** (Three stars indicates P<0.001) | ** (Two stars indicates P<0.01)
